Data reported in US9539223B2, “Methods for treating bacterial infections” (Neoculi Pty Ltd., priority 2013, dated 2017).

How the values were obtained:
E. faecalis USA01 = test: MBC test (CLSI), non-VRE E. faecalis isolate
[1] = test system: Staphylococcus pseudintermedius; test: MBC testing (CLSI), S. pseudintermedius isolates; assay type: cell-based
Protocol: After the MICs were determined, the minimum bactericidal concentrations were performed to determine if these compounds are bacteriostatic or bacteriocidal.

S. pneumoniae strain D39 = test: Micro-broth dilution time kill studies; assay type: cell-based, Streptococcus pneumoniae
Protocol: Negative dilution controls were subtracted from the median growth value to obtain a suitable indicator of overall bacterial production. The 96-well tray was incubated at 37° C. in 5% CO2 and read every 2 hrs for the first 12 hrs followed by final reads at 24 and 48 hrs at 600 nm.

N=C(N/N=C/c1ccc(Cl)cc1)N/N=C/c1ccc(Cl)cc1 [NCL812, 1,2-bis[(E)-(4-chlorophenyl)methylideneamino]guanidine]
MBC test: Number of Bacteria Growing after 24 hours per ml of sample (E. faecalis USA01; 4 μg/ml): 488 CFU/ml | MBC test: growth on Sheep Blood Agar (E. faecalis USA01; 4 μg/ml): + | MBC test: growth on Sheep Blood Agar (E. faecalis USA01; 8 μg/ml): + | MBC test: growth on Sheep Blood Agar (E. faecalis USA01; 16 μg/ml): + | MBC test: Number of Bacteria Growing after 24 hours per ml of sample (E. faecalis USA01; 32 μg/ml): 7 CFU/ml | MBC test: growth on Sheep Blood Agar (E. faecalis USA01; 32 μg/ml): + | MBC test: Number of Bacteria Growing after 24 hours per ml of sample (E. faecalis USA01; 64 μg/ml): 1 CFU/ml | MBC test: growth on Sheep Blood Agar (E. faecalis USA01; 64 μg/ml): + | MBC test: growth on Sheep Blood Agar (E. faecalis USA01; […]): + | activity based on minimal bactericidal concentrations (MBC) [1]: bactericidal | effect of choline chloride in the media on growth (S. pneumoniae strain D39; 5% choline chloride, 48 hour, compared to positive and growth controls): no significant difference in growth | concentrations resulting in no bacterial growth for 48 hrs (S. pneumoniae strain D39; D39): ≥ 16 µg/mL | sub-inhibitory concentrations (growth similar to unexposed controls over 48 hour) (S. pneumoniae strain D39; D39): ≤ 2 µg/mL | entered a log phase of growth at (S. pneumoniae strain D39; D39 treated with ≦4 μg/ml NCL812): 6 hrs
